Legend:
[1] = system: Huh7 cells; test: Luciferase gene expression of mRNA LNPs in Huh7 cells; type: cell-based, human; settings: 62.5 ng mRNA/well, N/P 9
[2] = Particle size, polydispersity and zeta potential measurement (DLS, ELS); type: physicochemical; set-up: Zeta / Size: unit not given here
Experimental: 6.6 Particle Size and Zeta Potential Measurement for pDNA, mRNA, siRNA, Cas9 mRNA/sgRNA and Cas9 mRNA/sgRNA/ssDNA Polyplexes as Well as mRNA LNPs
Measurements of size and zeta potential were performed with a Zetasizer Nano ZS (Malvern Instruments, Malvern, Worcestershire, U.K.) in a folded capillary cell (DTS1070) by dynamic and electrophoretic laser-light scattering (DLS, ELS). […] Samples were measured three times with six sub runs per measurement. For measurement of the zeta potential, all samples were diluted to 800 μL with HBG or HEPES (for siRNA polyplexes) directly before measurement. Parameters were identical to the size measurement apart from an equilibration time of 60 sec. Three measurements with 15 sub runs lasting 10 sec each were performed, and zeta potentials were calculated by the Smuchowski equation.

[3] = system: N2a/eGFPLuc, KB/eGFPLuc, and CT26/eGFPLuc; test: Gene silencing activity of siRNA LNPs in three cell lines; type: cell-based; settings: N/P 9, 63 and 31 ng siRNA/well, 48 h
[4] = system: N2a cells; test: Co-delivery efficiency of mRNA/pDNA polyplexes by flow cytometry; type: cell-based, murine; settings: N/P 18, 25 and 50 ng combined nucleic acid/well
Experimental: CleanCap® mCherry mRNA (5moU) (Trilink Biotechnologies, San Diego, CA, USA) and pEGFP-N1 pDNA (Clontech Laboratories, Inc. (now Takara Bio USA, Inc., San Jose, CA, USA)) at a fixed weight ratio of 1:1 were mixed and diluted in HBG. Calculated amounts of aminolipid at indicated N/P (nitrogen/phosphate) ratios (see above) were diluted in separate tubes of HBG. Equal volumes of nucleic acid solution and aminolipid solution were mixed by rapid pipetting and incubated 40 min at RT in a closed Eppendorf reaction tube. The final concentration of nucleic acid in the polyplex solution was 5 μg/mL (2.5 μg/mL mCherry mRNA plus 2.5 μg/mL pEGFP-N1 pDNA).
mRNA/pDNA polyplex treatments were performed in triplicate in 96-well plates. N2a cells were seeded 24 h prior to transfection (10,000 cells/well). On the next day, the medium was replaced with 80 μL of fresh pre-warmed medium containing 10% (v/v) FBS. The nanoparticles were prepared as described above, and the volumes of 10 and 5 μL of polyplex solution (2.5 μg/mL mCherry mRNA and 2.5 μg/mL pEGFP-N1 pDNA) were added. 20 μL HBG buffer per well was used as negative control. After 24 h of treatment, cells were collected and re-suspended in PBS solution containing 10% (v/v) FBS (FACS buffer) for flow cytometric evaluation. All samples were analyzed by flow cytometry using a CytoFLEX S Flow Cytometer (Beckman Coulter, Brea, CA, USA). Shortly before the measurement, 1 ng/μL 4′, 6-diamidino-2-phenylindole (DAPI) was added and used to discriminate between viable and dead cells. The cellular fluorescence was assayed by excitation of DAPI at 405 nm and detection of emission at 450 nm. Only isolated viable cells were evaluated. Gates were set compared to control measurements with HBG buffer-treated cells. […] Flow cytometry data were analyzed using FlowJo™ v10.8 flow cytometric analysis software by FlowJo, LLC (Becton, Dickinson and Company, U.S.). The cellular fluorescence expression was assayed by excitation at 561 nm and 488 nm, the detection of emission at 610 nm and 530 nm for mCherry and eGFP, respectively.

[5] = system: N2a/eGFPLuc, DU145/eGFPLuc, and KB/eGFPLuc; test: Gene silencing activity of siRNA polyplexes in three cell lines; type: cell-based, murine, human; settings: N/P 18, 15.6 ng siRNA/well, 48 h
[6] = system: KB, U87, and HCT116 cells; settings: 10 ng poly(I:C) per well, 48 h, especially in KB cells
Experimental: The cytotoxic effect of double-stranded RNA (poly(I:C)) was evaluated in cancer cells using LAF carriers 1611, 1719, and 1752. The toxicity induced by poly(I:C) and carriers were differentiated by using non-toxic single-stranded poly(I). LPEI and the LAF-Stp carriers were transfected in medium supplemented with 10% (v/v) FBS. In the case of lipofectamine, particles were prepared and transfected according to the manufacturer's protocol (particle formation as well as transfection in serum-free medium; ThermoFisher). At 4 h after lipofectamine transfection, medium was replaced with fresh medium supplemented with 10% (v/v) FBS followed by incubation of 48 h in total. The percentage of cell survival was calculated relative to the HBG buffer-treated control cells (n=3, mean+SD).

[7] = system: Huh7 cells; test: Luciferase expression assay of pDNA polyplexes in Huh7 cells; type: cell-based, human
[8] = system: N2a tumor-bearing A/J mice; test: Ex vivo luciferase expression after intravenous injection of mRNA polyplexes; type: in vivo; settings: tumors, lungs, liver, spleen
Experimental: Neuro2a cells (10^6 cells/150 μL PBS) were inoculated subcutaneously into the left flank of 6-week-old female A/J mice (Envigo RMS GmbH, Dusseldorf, Germany). Mice were randomly divided into groups of three (in the case of mRNA LNPs) or five (in the case of mRNA polyplexes) and were housed in isolated ventilated cages under specific pathogen free conditions with a 12 h day/night interval, and food and water ad libitum. Weight and general well-being were monitored continuously. Tumor size was measured with a caliper and determined by formula: a*b^2/2 (a=longest side of the tumor; b=widest side vertical to a). When tumors reached a size of 250-500 mm3, the experiments were performed by intravenous tail vein injection of polyplexes or LNPs formed as described in 6.1 and 6.3, containing 1 μg, 3 μg or 10 μg of stabilized firefly luciferase encoding mRNA (CleanCap™ FLuc mRNA (5moU); Trilink Biotechnologies, San Diego, CA, USA) in 150 μL HBG. Polyplexes containing 10 μg mRNA were dialyzed for 1 h at 4° C. against HBG (dialysis membrane MWCO 100-500 Da; Spectra/Por®, Carl Roth, Karlsruhe, Germany) prior to application to remove small amounts of ethanol. […] The luciferase gene expression was determined as described above and is presented as relative light units (RLU) per gram (g) tumor/organ.
To evaluate luciferase mRNA delivery by an ex vivo luciferase gene expression assay, organ and tumor tissues were homogenized in Luciferase Cell Culture Lysis Reagent 1× (Promega, Mannheim, Germany), supplemented with 1% (v/v) protease and phosphatase inhibitor cocktail (Sigma-Aldrich, Munich, Germany) using a tissue and cell homogenizer (FastPrep®-24, MP Biomedicals, USA). […] Luciferase activity in 25 μL supernatant was measured in a Centro LB 960 plate reader luminometer (Berthold Technologies, Bad Wildbad, Germany) for 10 sec after addition of 100 μL/well of a LAR buffer solution (20 mM glycylglycine, 1.0 mM MgCl2, 0.10 mM EDTA, 3.3 mM DTT, 0.55 mM ATP, and 0.27 mM coenzyme A; pH 8-8.5) supplemented with 5% (v/v) of a mixture of 10 mM luciferin and 29 mM glycylglycine.

[9] = system: N2a/eGFPLuc cells; test: eGFP knock out efficiency of Cas9 mRNA/sgGFP1 polyplexes by flow cytometry; type: cell-based, murine; settings: after 72 h
Experimental: For Cas9 mRNA/sgRNA polyplexes, CleanCap® Cas9 mRNA (5moU) (Trilink Biotechnologies, San Diego, CA, USA) and sgRNA at a fixed weight ratio of 1:1 were mixed and diluted in HBG.
Calculated amounts of aminolipid at indicated N/P (nitrogen/phosphate) ratios (see above) were diluted in separate tubes of HBG. Equal volumes of nucleic acid solution and aminolipid solution were mixed by rapid pipetting and incubated 40 min at RT in a closed Eppendorf reaction tube.
Cas9 mRNA/sgRNA polyplex treatments were performed in triplicate in 96-well plates. N2a eGPFLuc cells were seeded 24 h prior to transfection (5000 cells/well). On the next day, the medium was replaced with 80 μL of fresh pre-warmed medium containing 10% (v/v) FBS. The nanoparticles were prepared as described above, and the volumes of 20, 10, and 5 μL of polyplex solution (2.5 μg/mL Cas9 mRNA and 2.5 μg/mL sgGFP1) were added. 20 μL HBG buffer per well was used as negative control. After 24 h of treatment, the cells were expanded, and the medium was replaced by 100 μL of fresh pre-warmed medium and incubated for additional 48 h. […] Only isolated viable cells were evaluated. The eGFP knock out efficiency was determined as the percentage of eGFP negative cells normalized to the control measurements with HBG buffer-treated cells.

[10] = mRNA LNPs, 12.5 μg/mL CleanCap FLuc mRNA (5moU), N/P 9, molar ratios see Table A
[11] = siRNA LNPs, siCtrl 25 μg/mL, N/P 9
[12] = Cas9 mRNA/sgDMDex23 polyplexes, N/P 24, combined nucleic acid 12.5 μg/mL
[13] = PEGylated pDNA polyplexes 25% PEG, 10 μg/mL pCMVLuc
[14] = Targeted pDNA polyplexes 12.5% PEG 2k, 12.5% PEG-GE11, 10 μg/mL pCMVLuc
[15] = Unmodified pDNA polyplexes 0%, 10 μg/mL pCMVLuc
[16] = dialyzed mRNA polyplexes for in vivo application, 66.7 μg/mL mRNA, 1611 N/P 18, 1719 N/P 12
[17] = mRNA polyplexes, 12.5 μg/mL CleanCap FLuc mRNA (5moU), N/P 12 (1611, 1719, 1722, 1732), N/P 24 (1614), N/P 18 (1621, 1747)
[18] = pDNA polyplexes, N/P 12, 10 μg/mL pCMVLuc
[19] = poly(I) polyplexes, 12.5 μg/mL, 1611 N/P 18, 1719 N/P 12, 1752 N/P 24
[20] = poly(I:C) polyplexes, 12.5 μg/mL, 1611 N/P 18, 1719 N/P 12, 1752 N/P 24

K[K(14He)2]2-Stp [compound 1755]
luciferase expression of mRNA LNPs relative to SM-102 [1]: 2 fold | Pdl [2, 10]: 0.220 | Z-average [2, 10]: 149.6 nm | Zeta potential [2, 10]: 2.26 mV | Pdl [2, 11]: 0.287 | Z-average [2, 11]: 160.6 nm | Zeta potential [2, 11]: 3.4 mV

K[K(10Oc)2]2-Stp [compound 1762]
Pdl [2, 11]: 0.104 | Z-average [2, 11]: 244.3 nm | Zeta potential [2, 11]: −3.2 mV | gene silencing (eGFP silencing) of siRNA LNPs [3]: approximately the same potential for eGFP silencing

K(12Oc)2-Stp-K[K(12Oc)2] [compound 1716]
mCherry mRNA/eGFP pDNA co-expression (co-delivery efficiency) [4]: most potent structures | Pdl [2, 10]: 0.150 | Z-average [2, 10]: 200.9 nm | Zeta potential [2, 10]: −0.25 mV | gene silencing efficiency of siRNA polyplexes in three cell lines [5]: great performance in all three tested cell lines

K[K(12He)2]2-Stp [compound 1754]
RLU values of mRNA LNPs relative to DLin-MC3-DMA [1]: 10 fold | Pdl [2, 10]: 0.187 | Z-average [2, 10]: 171.0 nm | Zeta potential [2, 10]: 1.11 mV | Pdl [2, 11]: 0.144 | Z-average [2, 11]: 173.0 nm | Zeta potential [2, 11]: 2.2 mV

[K(12Oc)]2-Stp2-[K(12Oc)]2 [compound 1719]
cell viability after poly(I:C) polyplex treatment [6]: significant decrease in the cell viability | Pdl [2, 12]: 0.268 | Z-average [2, 12]: 80.8 nm | Zeta potential [2, 12]: 42.6 mV | Pdl [2, 13]: 0.13 | Size [2, 13]: 76 | Zeta [2, 13]: 10.5 | Pdl [2, 14]: 0.13 | Size [2, 14]: 88 | Zeta [2, 14]: 10.5 | Pdl [2, 15]: 0.09 | Size [2, 15]: 77 | Zeta [2, 15]: 29.5 | Pdl [2, 16]: 0.176 ± 0.016 | Zeta potential [2, 16]: 30.7 ± 1.7 mV | Pdl [2, 17]: 0.225 | Z-average [2, 17]: 75.0 nm | Zeta potential [2, 17]: 33.0 mV | Pdl [2, 18]: 0.220 ± 0.001 | Z-average [2, 18]: 110.4 ± 1.89 nm | Zeta potential [2, 18]: 13.0 ± 0.5 mV | Pdl [2, 19]: 0.32 ± 0.08 | Z-average [2, 19]: 86.8 ± 11.4 nm | Zeta potential [2, 19]: 23.2 ± 0.4 mV | Pdl [2, 20]: 0.25 ± 0.05 | Z-average [2, 20]: 95.9 ± 2.1 nm | Zeta potential [2, 20]: 13.8 ± 2.9 mV | RLU values of targeted polyplexes in comparison to shielded polyplexes ([7]; N/P 12, pDNA dose 50 ng/well): 6.5 fold | RLU values of targeted polyplexes in comparison to shielded polyplexes ([7]; N/P 12, pDNA dose 100 ng/well): 4.4 fold | in vivo luciferase expression of mRNA polyplexes [8]: great in vivo performance

K[K(16Bu)2]2-Stp [compound 1753]
Pdl [2, 10]: 0.227 | Z-average [2, 10]: 142.1 nm | Zeta potential [2, 10]: 3.39 mV | Pdl [2, 11]: 0.292 | Z-average [2, 11]: 195.1 nm | Zeta potential [2, 11]: 2.6 mV | gene silencing (eGFP silencing) of siRNA LNPs [3]: approximately the same potential for eGFP silencing

K(8Oc)2-Stp2-K[K(8Oc)2] [compound 1732]
Pdl [2, 17]: 0.304 | Z-average [2, 17]: 98.2 nm | Zeta potential [2, 17]: 26.2 mV | eGFP knock-out efficiency of Cas9 mRNA/sgRNA polyplexes [9]: good knock-out efficiency

Reference: patent US20260159854A1, “NOVEL CARRIERS FOR NUCLEIC ACID AND/OR PROTEIN DELIVERY” (LUDWIG-MAXIMILIANS-UNIVERSITÄT MÜNCHEN, priority 2022, published 2026)
